{"source": "paper PMC222928", "about": "(BMC Biochemistry, 2003)", "molecules": {"B1": {"name": "aaTHEP1 (Aquifex aeolicus VF5) (protein)", "chain": "MKIIITGEPGVGKTTLVKKIVERLGKRAIGFWTEEVRDPETKKRTGFRIITTEGKKKIFSSKFFTSKKLVGSYGVNVQYFEELAIPILERAYREAKKDRRKVIIIDEIGKMELFSKKFRDLVRQIMHDPNVNVVATIPIRDVHPLVKEIRRLPGAVLIELTPENRDVILEDILSLLER"}}, "key": {"aaTHEP1 [1]": {"target": "T1, aaTHEP1 (Aquifex aeolicus, UniProt O67322)", "T1 sequence (O67322 1-178)": "B1 chain", "assay": "inhibition of [γ-32P]ATP hydrolysis, TLC on PEI-cellulose", "format": "biochemical"}, "aaTHEP1 [2]": {"target": "T1, aaTHEP1", "assay": "inhibition of [γ-32P]ATP hydrolysis, TLC autoradiography", "format": "biochemical", "conditions": "5 and 1000 μM ATP, 5 and 1000 μM GDP, 70°C, 5 min"}, "purified protein": {"substrate": "Nc1ncnc2c1ncn2[C@@H]1O[C@H](COP(=O)(O)OP(=O)(O)OP(=O)(O)O)[C@@H](O)[C@H]1O", "assay": "purified protein", "conditions": "70°C, 25 mM MgCl2, 5 mM KCl, pH 7.0, labelled compound"}}}
{"molecule": "Nc1ccn([C@@H]2O[C@H](COP(=O)(O)OP(=O)(O)OP(=O)(O)O)[C@@H](O)[C@H]2O)c(=O)n1", "note": "[CTP]", "values": [{"measurement": "Ki", "setting": "aaTHEP1 [1]", "result": "6 ± 2", "unit": "µM"}]}
{"molecule": "Nc1nc2c(ncn2[C@@H]2O[C@H](COP(=O)(O)OP(=O)(O)O)[C@@H](O)[C@H]2O)c(=O)[nH]1", "note": "[GDP]", "values": [{"measurement": "inhibition of [γ-32P]ATP hydrolysis, TLC autoradiography", "setting": "aaTHEP1 [2]", "result": "GDP also inhibits ATP-hydrolysis, whereas GMP, AMP, and UMP show no inhibition"}]}
{"molecule": "Nc1nc2c(ncn2[C@@H]2O[C@H](COP(=O)(O)OP(=O)(O)OP(=O)(O)O)[C@@H](O)[C@H]2O)c(=O)[nH]1", "note": "[GTP]", "values": [{"measurement": "Ki", "setting": "aaTHEP1 [1]", "result": "57 ± 20", "unit": "µM"}]}
{"molecule": "O=c1ccn([C@@H]2O[C@H](COP(=O)(O)OP(=O)(O)OP(=O)(O)O)[C@@H](O)[C@H]2O)c(=O)[nH]1", "note": "[UTP]", "values": [{"measurement": "Ki", "setting": "aaTHEP1 [1]", "result": "5 ± 2", "unit": "µM"}]}
{"molecule": "Nc1ncnc2c1ncn2[C@H]1C[C@H](O)[C@@H](COP(=O)(O)OP(=O)(O)OP(=O)(O)O)O1", "note": "[dATP]", "values": [{"measurement": "Ki", "setting": "aaTHEP1 [1]", "result": "3 ± 0.2", "unit": "µM"}]}
{"molecule": "Nc1ccn([C@H]2C[C@H](O)[C@@H](COP(=O)(O)OP(=O)(O)OP(=O)(O)O)O2)c(=O)n1", "note": "[dCTP]", "values": [{"measurement": "Ki", "setting": "aaTHEP1 [1]", "result": "9 ± 3", "unit": "µM"}]}
{"molecule": "Nc1nc2c(ncn2[C@H]2C[C@H](O)[C@@H](COP(=O)(O)OP(=O)(O)OP(=O)(O)O)O2)c(=O)[nH]1", "note": "[dGTP]", "values": [{"measurement": "Ki", "setting": "aaTHEP1 [1]", "result": "18 ± 2", "unit": "µM"}]}
{"molecule": "Cc1cn([C@H]2C[C@H](O)[C@@H](COP(=O)(O)OP(=O)(O)OP(=O)(O)O)O2)c(=O)[nH]c1=O", "note": "[dTTP]", "values": [{"measurement": "Ki", "setting": "aaTHEP1 [1]", "result": "6 ± 2", "unit": "µM"}]}
{"molecule": "B1", "values": [{"measurement": "Km", "setting": "purified protein", "result": 5.5, "unit": "µM"}, {"measurement": "kcat", "setting": "purified protein", "result": 0.005, "unit": "s⁻¹"}]}
